The record followed here is ChEMBL document CHEMBL1201862, “PubChem BioAssay data set” (2004).

Some test systems named below: DU-145; MDA-N; OVCAR-5; T47D; HCT-116; HOP-62; SF-539; OVCAR-4; HCC 2998; CAKI-1; UO-31; HCT-15; NCI-H460; SK-OV-3; CCRF-CEM; TK-10; SK-MEL-5; LOX IMVI; SR.
Holding throughout (experiment): growth of human tumour cells (NCI), 48 h

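Test compounds were applied to cells in 96-well plates for 48 hours at 5 doses. GI50 marks 50% less growth.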 Active and inactive are the calls of the source. No stated cut-off is given here; in the data, active = GI50 up to about 1.1 µM and inactive = higher. Where only a bound is given, the exact number is not on record here.

For `CCCCCCCCOCC1S(=O)(=O)OCCOS1(=O)=O`, the GI50 in the assay with DU-145, in the assay on MDA-N, in the assay with OVCAR-5, with T47D, in the assay on HCT-116 and in the assay with HOP-62 was > 100 µM (inactive) each time. For the same compound, the GI50 is > 100 µM (inactive) in the assay on SF-539; > 100 µM (inactive) in the assay on OVCAR-4; > 100 µM (inactive) with HCC 2998; > 100 µM (inactive) with CAKI-1; > 100 µM (inactive) in the assay on UO-31; > 100 µM in the assay on HCT-15. For the same compound, the GI50 with NCI-H460, with SK-OV-3, in the assay with CCRF-CEM, in the assay with TK-10, in the assay on SK-MEL-5 and in the assay with LOX IMVI was > 100 µM (inactive) each time. The GI50 in the assay on SR is 40.4 µM (inactive).

For `N#CNC(=N)Nc1ccc(Cl)cc1`, the GI50 in the assay on DU-145, in the assay on MDA-N, with OVCAR-5, in the assay on T47D, in the assay on HCT-116 and in the assay with HOP-62 was > 100 µM (inactive) each time. Further, the GI50 in the assay on SF-539 is > 100 µM (inactive); in the assay on OVCAR-4, > 100 µM (inactive); with HCC 2998, > 100 µM (inactive); in the assay with CAKI-1 it was > 100 µM (inactive); in the assay on UO-31 it was > 100 µM (inactive); in the assay with HCT-15 it was > 100 µM. The GI50 in the assay with NCI-H460, in the assay on SK-OV-3, in the assay with TK-10, in the assay on SK-MEL-5, with LOX IMVI and in the assay with SR was > 100 µM (inactive) each time.

As for `Cc1c[nH]c(C(=O)O)c1-c1cccn1-c1ccc(Cl)cc1[N+](=O)[O-]`, the GI50 in the assay on DU-145 was > 100 µM (inactive); in the assay with MDA-N, > 100 µM (inactive); with OVCAR-5 it was > 100 µM (inactive); in the assay with T47D, > 100 µM (inactive); in the assay with HCT-116, > 100 µM (inactive); in the assay on HOP-62, 63.2 µM (inactive). Moreover, the GI50 with SF-539 is > 100 µM (inactive); in the assay on OVCAR-4 it was > 100 µM (inactive); in the assay on HCC 2998, > 100 µM (inactive); in the assay with CAKI-1, > 100 µM (inactive); in the assay with UO-31, 45.9 µM (inactive); in the assay on HCT-15, > 100 µM. Also, the GI50 with NCI-H460, in the assay with SK-OV-3, in the assay with CCRF-CEM, in the assay with TK-10, in the assay with SK-MEL-5 and in the assay on LOX IMVI was > 100 µM (inactive) each time. Besides, the GI50 with SR was 99.3 µM (inactive).

Regarding `Cc1ccc(C(=O)/C=C(\O)C(=O)NN=C(c2ccccc2)c2ccccc2)cc1`, the GI50 is > 100 µM (inactive) in the assay on DU-145; > 100 µM (inactive) in the assay on MDA-N; > 100 µM (inactive) with OVCAR-5; > 100 µM (inactive) with T47D; 36.5 µM (inactive) in the assay on HCT-116; > 100 µM (inactive) in the assay with SF-539. The GI50 is 63.1 µM (inactive) with OVCAR-4; 80 µM (inactive) with HCC 2998; > 100 µM (inactive) in the assay with CAKI-1; 55.6 µM (inactive) with UO-31; 39 µM with HCT-15; 40.6 µM (inactive) in the assay with NCI-H460. Further, the GI50 is > 100 µM (inactive) in the assay on SK-OV-3; 29.2 µM (inactive) in the assay with CCRF-CEM; > 100 µM (inactive) with TK-10; 53.1 µM (inactive) in the assay on SK-MEL-5; 12.2 µM (inactive) in the assay with LOX IMVI; 27.2 µM (inactive) in the assay with SR.

For `C=CC1=C(C)c2cc3[nH]c(c4c5nc(cc6[nH]c(cc1n2)c(C=O)c6CC)C(C)=C5C(=O)[C@@H]4C(=O)OC)[C@@H](CCC(=O)O)[C@@H]3C`, the GI50 is 13.4 µM (inactive) in the assay with DU-145; > 100 µM (inactive) in the assay with MDA-N; > 100 µM (inactive) in the assay with OVCAR-5; 20.7 µM (inactive) with T47D; 65.5 µM (inactive) in the assay on HCT-116; 39.6 µM (inactive) in the assay on SF-539. Also, the GI50 in the assay on OVCAR-4 is > 100 µM (inactive); in the assay with HCC 2998, > 100 µM (inactive); with CAKI-1, > 100 µM (inactive); in the assay with UO-31, 32.7 µM (inactive); in the assay on HCT-15, 35.6 µM; in the assay on NCI-H460 it was > 100 µM (inactive). Moreover, the GI50 is > 100 µM (inactive) in the assay on SK-OV-3; 31.3 µM (inactive) in the assay on CCRF-CEM; > 100 µM (inactive) in the assay on TK-10; 30.3 µM (inactive) in the assay on SK-MEL-5; > 100 µM (inactive) in the assay on LOX IMVI; 10 µM (inactive) in the assay with SR.

Consider `Cc1c(Cl)cc(C(C)(C)C)c(O)c1Cc1c(C)c(Cl)cc(C(C)(C)C)c1O`, for which the GI50 in the assay on DU-145 is 1.96 µM (inactive); in the assay on MDA-N, 2.18 µM (inactive); in the assay with OVCAR-5, 3.43 µM (inactive); in the assay with T47D, 0.562 µM (active); in the assay on HCT-116 it was 0.536 µM (active); in the assay with HOP-62, 2.96 µM (inactive). Also, the GI50 in the assay on SF-539 is 1.97 µM (inactive); with OVCAR-4, 1.26 µM (inactive); with HCC 2998 it was 0.796 µM (active); in the assay on CAKI-1 it was 1.32 µM (inactive); with UO-31 it was 1.82 µM (inactive); in the assay with HCT-15, 2.21 µM. For the same compound, the GI50 was 0.634 µM (active) in the assay on NCI-H460; 2.98 µM (inactive) in the assay with SK-OV-3; 0.303 µM (active) in the assay on CCRF-CEM; 2.04 µM (inactive) with TK-10; 0.762 µM (active) in the assay with SK-MEL-5; 1.56 µM (inactive) in the assay on LOX IMVI. In the assay on SR, the GI50 is 2.18 µM (inactive).

Turning to `COc1cc(C2c3cc4c(cc3OC(NC3CCCCC3)C2C)OCO4)cc(OC)c1OC` (centres undefined), the GI50 is 0.478 µM (active) in the assay on DU-145; 0.188 µM (active) in the assay on MDA-N; 3.03 µM (inactive) with OVCAR-5; 0.339 µM (active) in the assay with T47D; 0.47 µM (active) with HCT-116; 2.38 µM (inactive) with HOP-62. Also, the GI50 with SF-539 was 0.339 µM (active); with OVCAR-4, 0.615 µM (active); in the assay on HCC 2998, 1.5 µM (inactive); with CAKI-1 it was 0.409 µM (active); in the assay with UO-31 it was 0.515 µM (active); in the assay with HCT-15, 0.543 µM. In addition, the GI50 was 0.488 µM (active) in the assay on NCI-H460; 0.394 µM (active) in the assay with SK-OV-3; 0.422 µM (active) in the assay with CCRF-CEM; 16.9 µM (inactive) in the assay with TK-10; 0.362 µM (active) in the assay with SK-MEL-5; 0.617 µM (active) in the assay on LOX IMVI. For the same compound, the GI50 with SR was 0.378 µM (active).

In the case of `Cc1oc2c(Cl)cc(O)c(Cl)c2c2cccc1-2`, the GI50 was 8.85 µM (inactive) in the assay with DU-145; 18.5 µM (inactive) with MDA-N; 45.5 µM (inactive) in the assay with OVCAR-5; 1.96 µM (inactive) in the assay on T47D; 16.6 µM (inactive) in the assay on HCT-116; 24.2 µM (inactive) in the assay with HOP-62. Besides, the GI50 in the assay on SF-539 is 20.1 µM (inactive); with OVCAR-4, 12 µM (inactive); in the assay with HCC 2998, > 100 µM (inactive); in the assay with CAKI-1, 30.1 µM (inactive); in the assay on UO-31 it was 36.4 µM (inactive); in the assay on HCT-15, 21.5 µM. Besides, the GI50 was > 100 µM (inactive) in the assay on NCI-H460; > 100 µM (inactive) in the assay with SK-OV-3; 14.1 µM (inactive) in the assay with CCRF-CEM; > 100 µM (inactive) with TK-10; 19.4 µM (inactive) in the assay on SK-MEL-5; 16.9 µM (inactive) in the assay with LOX IMVI. Besides, the GI50 in the assay on SR is 12.5 µM (inactive).

For `COc1ccc(/C=C2\Sc3nnc(-c4ccccc4)n3N=C2c2cc(F)c(Cl)cc2Cl)cc1OC`, the GI50 is > 100 µM (inactive) in the assay on DU-145; 23.1 µM (inactive) in the assay on MDA-N; > 100 µM (inactive) in the assay with OVCAR-5; 29.6 µM (inactive) in the assay with T47D; 6.24 µM (inactive) in the assay with HCT-116; > 100 µM (inactive) with HOP-62. Also, the GI50 in the assay with SF-539 was > 100 µM (inactive); with OVCAR-4, 18.2 µM (inactive); with HCC 2998, 14.3 µM (inactive); with CAKI-1 it was 31 µM (inactive); with UO-31 it was 31.1 µM (inactive); in the assay on HCT-15, 19.1 µM. For the same compound, the GI50 is > 100 µM (inactive) with NCI-H460; > 100 µM (inactive) with SK-OV-3; 4.98 µM (inactive) in the assay on CCRF-CEM; > 100 µM (inactive) with TK-10; > 100 µM (inactive) in the assay with SK-MEL-5; > 100 µM (inactive) with LOX IMVI. For the same compound, the GI50 in the assay on SR is 2.14 µM (inactive).

Regarding `O=C1O[C@H]2C3C4CCC(C4[C@@H]2I)[C@H]13` (some centres undefined), the GI50 in the assay on DU-145, with MDA-N, in the assay with OVCAR-5, with T47D, in the assay on HCT-116 and in the assay with HOP-62 was > 100 µM (inactive) throughout. Also, the GI50 with SF-539 was > 100 µM (inactive); in the assay on OVCAR-4, > 100 µM (inactive); in the assay with HCC 2998, > 100 µM (inactive); with CAKI-1 it was > 100 µM (inactive); in the assay on UO-31, > 100 µM (inactive); in the assay on HCT-15, > 100 µM. Further, the GI50 with NCI-H460, with CCRF-CEM, in the assay with TK-10, with SK-MEL-5, in the assay on LOX IMVI and with SR was > 100 µM (inactive) in each case.

Regarding `OCCNCCN1CCN(CCCN2c3ccccc3Sc3ccc(C(F)(F)F)cc32)CC1`, the GI50 in the assay with DU-145 is 50.6 µM (inactive); in the assay on MDA-N, 19 µM (inactive); with OVCAR-5 it was 25.5 µM (inactive); with T47D, 27.1 µM (inactive); with HCT-116, 17.9 µM (inactive); with HOP-62, 21.4 µM (inactive). Also, the GI50 in the assay with SF-539 is 20.2 µM (inactive); with OVCAR-4, 25.8 µM (inactive); with HCC 2998 it was 27.4 µM (inactive); in the assay with CAKI-1, 76.2 µM (inactive); in the assay with HCT-15, 19.7 µM; with NCI-H460 it was 23.2 µM (inactive). In addition, the GI50 with SK-OV-3 is 33.6 µM (inactive); in the assay with CCRF-CEM, > 100 µM (inactive); in the assay with TK-10 it was 22.1 µM (inactive); in the assay on SK-MEL-5, > 100 µM (inactive); with LOX IMVI it was 14.5 µM (inactive); with SR it was > 100 µM (inactive).
